Measurements as given in patent US9499511B2, “N-substituted hydroxylamine derivatives with carbon-based leaving groups” (The Johns Hopkins University, priority 2011, dated 2016).
Where a name gives a salt, the structure may show the parent alone.

What was measured:
[1] = N2O headspace analysis (GC) of HNO production, relative to Angeli's salt; format: physicochemical; conditions: for HNO / N2O production (in words): decomposition at pH 7.4; for % HNO: donor 0.1 mM, 37° C., PBS pH 7.4, yield relative to Angeli's salt by N2O headspace analysis, SEM ±5%, n = 3
Experimental: Nitrous oxide is produced via the dimerization and dehydration of HNO, and is the most common marker for HNO production (Fukuto, J. M. et al., Chem. Res. Toxicol. 2005, 18, 790-801).
Gas chromatography was performed on a Varian CP-3800 instrument equipped with a 1041 manual injector, electron capture detector, and a 25 m 5 Å molecular sieve capillary column. Grade 5.0 nitrogen was used as both the carrier (8 mL/min) and the make-up (22 mL/min) gas. The injector oven and the detector oven were kept at 200° C. and 300° C., respectively. All nitrous oxide analyses were performed with the column oven held constant at 150° C. All gas injections were made using a 100 μL gastight syringe with a sample-lock. Samples were prepared in 15 mL amber headspace vials with volumes pre-measured for sample uniformity (actual vial volume ranges from 15.19-15.20 mL). Vials were charged with 5 mL of PBS buffer containing DTPA, purged with argon, and sealed with a rubber septum. The vials were equilibrated for at least 10 minutes at 37° C. in a dry block heater. A 10 mM stock solution of Angeli's salt (AS) was prepared in 10 mM sodium hydroxide, and HNO donors 1a-4a, 6a (10 mM) were prepared in acetonitrile or methanol and used immediately after preparation. From these stock solutions, 50 μL was introduced into individual thermally-equilibrated headspace vials using a gastight syringe, yielding final substrate concentrations of 0.1 mM. Substrates were then incubated long enough to ensure complete decomposition and equilibration of N2O with the headspace. The headspace (60 μL) was then sampled and injected five successive times using a gastight syringe with a sample lock. This was repeated for n≧3 vials per donor. The nitrous oxide yield was averaged and reported relative to the standard, Angeli's salt. For chemical trapping of HNO, glutathione (100 μL of 10 mM in PBS) was added prior to HNO donor addition to give a final glutathione concentration of 0.2 mM, and headspace sampling for N2O was analogously performed as stated above.

[2] = Decomposition kinetics monitored by UV-Vis spectroscopy; format: physicochemical
Experimental: NMR spectra were obtained on a Bruker Avance 400 MHz FT-NMR spectrometer. […] High-resolution mass spectra were obtained on a VG Analytical VG70SE magnetic sector mass spectrometer operating in fast atom bombardment (FAB) mode. […] Phosphate-buffered saline (PBS) solutions (0.1 M) were prepared with 140 mM NaCl and 3 mM KCl, with 100 μM diethylenetriaminepentaacetic acid (DTPA), adjusted to pH 7.4.

[3] = Decomposition monitored by 1H NMR spectroscopy (carbanion yield, kinetics, half-life); format: physicochemical; conditions: 10% D2O
Excerpt: […] In each case, the bottom spectrum was collected at the start of the experiment, and the top spectrum after complete decomposition.
NMR spectra were obtained on a Bruker Avance 400 MHz FT-NMR spectrometer. […] High-resolution mass spectra were obtained on a VG Analytical VG70SE magnetic sector mass spectrometer operating in fast atom bombardment (FAB) mode. […]

Sprague-Dawley rats = assay: Acute cardiovascular effects, pressure-volume (PV) loop analysis in anesthetized rats; format: in vivo, rat; conditions: IV infusion 100 μg/kg/min, 5 rats
Experimental: The acute cardiovascular effects of compounds 4a and 6a, when administered intravenously to Sprague-Dawley rats at an infusion rate of 100 μg/kg/min, were examined by means of pressure-volume (PV) curve (loops) analysis. PV families/relationships were generated via pre-load variation and hemodynamic indices were compared to baseline values. Each test article was administered to 5 rats.
Rats were intraperitoneally (IP) anesthetized to effect with pentobarbital (˜50 mg/kg), shaved and positioned in dorsal recumbence, endotracheally intubated and ventilated […], ˜2.5 mL tidal volume with 95% O2/5% CO2) with an adjustable small animal ventilator (Harvard Apparatus). Anesthesia was maintained with a continuous pentobarbital infusion (to effect, ˜3 to 5 mg/kg/h, IV) until completion of the experiment via an indwelling catheter placed in a femoral vein. Subsequently, transthoracic needle electrodes forming a single-lead ECG were placed. For LV mechano-energetic evaluation, the right carotid artery was isolated, dissected free from the surrounding tissue, and cannulated with a 2F high-fidelity conductance/micromanometer catheter (Millar Instruments). This catheter was advanced retrograde across the aortic valve and into the LV chamber in order to simultaneously determine left-ventricular pressure and volume (via conductivity). […] Meanwhile, in order to record arterial pressures, a 2F high-fidelity micromanometer catheter (Millar Instruments) was inserted into a femoral artery and advanced towards the abdominal aorta. Finally, an in-dwelling catheter was placed into the jugular vein for administration of test article.
Following collection of baseline hemodynamic data, infusion of test article was initiated at an infusion rate of 100 μg/kg/min; at 10 μL/min. Pressure-volume analyses were performed again approximately 30 min and 45 min after the initiation of the dose.
The resulting left-ventricular pressure and volume data was analyzed offline (IOX/ECG Auto; EMKA Technologies) in order to generate relationships representing the contractile and energetic state of the myocardium. Systolic (SAP), diastolic (DAP), and mean (MAP) arterial pressures were collected. Left-ventricular mechanical and/or geometrical indices were obtained from the pressure (ESP, EDP, dP/dt max/min, time-constant of relaxation—tau [based on mono-exponential decay with non-zero asymptote]) and volume (ESV, EDV, SV) signal. In addition, the following measurements were derived from left-ventricular pressure-volume data (PV loops) generated during brief periods of preload reduction: • Pressure volume area (PVA) and stroke work (SW). • End-systolic (ESPVR) and end-diastolic (EDPVR) pressure volume relationships. • End systolic pressure and stroke volume relationship (Arterial Elastance, Ea).
Data are presented as means with standard errors (mean±SEM) in Table 6.

[4] = Decomposition kinetics monitored by UV-Vis spectroscopy; format: physicochemical; conditions: PBS, pH 7.4, Condition A: pH 7.4, 37° C., 0.1M PBS, 100 μL DTPA, air (UV/Vis)
[5] = comparison value; cited from earlier work
[6] = PBS, pH 7.4, Condition B: pH 7.4, 37° C., 0.25M PBS, no chelator, air (1H NMR)
[7] = PBS, pH 7.4, Condition G: pH 7.4, 37° C., 0.25M PBS, 100 μL DTPA, air (1H NMR)

## CC1(C)OC(=O)C(C)(NO)C(=O)O1 [Compound 1a, 5-(N-hydroxylamine)-5-methyl-Meldrum's acid hydrochloride monohydrate]
[1]
  HNO / N2O production (in words): only trace amounts of N2O
  % HNO: 2%

## CO/N=C(\C)C1(NO)C(=O)OC(C)(C)OC1=O [Compound 2a, 5-(N-hydroxylamine)-5-(acetyl-O-methoxyoxime)-Meldrum's acid]
[1]
  HNO / N2O production (in words): enhanced HNO yield
  % HNO: 25%
[2]; PBS, pH 7.4, footnote c not given, pH 7.4, 37° C., read-out: t1/2
  half-life: 0.015 h

## CCC1(NO)C(=O)N(C)C(=O)N(C)C1=O [Compound 3a, 5-(N-hydroxylamine)-5-ethyl-N,N-dimethylbarbituric acid hydrochloride]
[1]
  HNO / N2O production (in words): produced little HNO
  % HNO: 2%

## CO/N=C(\C)C1(NO)C(=O)N(C)C(=O)N(C)C1=O [Compound 4a, 5-(N-hydroxylamine)-5-(acetyl-O-methoxyoxime)-N,N-dimethylbarbituric acid]
[1]
  HNO / N2O production (in words): high yield of N2O
  % HNO: 110%
[3]; 4a to 4b, PBS, pH 7.4, room temperature
  decomposition rate constant k (single exponential fit): 0.0024 s⁻¹
[2]; buffer, pH 4, pH 4.0 and room temperature, read-out: half-life (converted)
  half-life: ~24 h
[2]; buffer, pH 7.4, footnote c not given, pH 7.4, 37° C., read-out: t1/2
  half-life: 0.0117 h
[2]; buffer, pH 7.4, pH 7.4 and 37° C., read-out: half-life (converted)
  half-life: ~0.0167 h
[2]; decomposition rate as a function of pH at 25° C., UV-Vis
  pH near which the decomposition rate sharply increases: ~8
Sprague-Dawley rats; baseline 124 (4a) / 138 (6a)
  Mean Blood Pressure: 71 mmHg
Sprague-Dawley rats; mean, baseline 1 (4a) / 2.2 (6a)
  Stroke Volume: 1.2 relative volume units
Sprague-Dawley rats; mean, baseline 1.7 (4a) / 1.8 (6a)
  End Diastolic Pressure Volume Relationship: 1.6
Sprague-Dawley rats; mean, baseline 4.7 (4a) / 4.4 (6a)
  End Diastolic Pressure: 3.4 mmHg
Sprague-Dawley rats; mean, baseline 8.5 (4a) / 8.7 (6a)
  Tau: 7.8 ms
Sprague-Dawley rats; mean, baseline 9.2 (4a) / 7.4 (6a)
  Arterial Elastance: 4.8
Sprague-Dawley rats; mean, baseline 14.6 (4a) / 19.2 (6a)
  End Diastolic Volume: 15 relative volume units
Sprague-Dawley rats; mean, baseline 28.1 (4a) / 23.7 (6a)
  End Systolic Pressure Volume Relationship: 34.1
Sprague-Dawley rats; mean, baseline 37.6 (4a) / 42.8 (6a)
  Pre-Load Recruitable Stroke Work: 54.3
Sprague-Dawley rats; mean, baseline 109 (4a) / 121 (6a)
  Diastolic Blood Pressure: 62 mmHg
Sprague-Dawley rats; mean, baseline 112 (4a) / 227 (6a)
  Stroke Work: 74 relative volume units × mmHg
Sprague-Dawley rats; mean, baseline 134 (4a) / 141 (6a)
  End Systolic Pressure: 71 mmHg
Sprague-Dawley rats; mean, baseline 147 (4a) / 160 (6a)
  Systolic Blood Pressure: 85 mmHg
Sprague-Dawley rats; mean, baseline 343 (4a) / 590 (6a)
  Pressure Volume Area: 151
Sprague-Dawley rats; mean, baseline 365 (4a) / 340 (6a)
  Heart Rate: 350 bp, m
Sprague-Dawley rats; mean, baseline 6392 (4a) / 7689 (6a)
  Left Ventricular +dP/dt: 3518 mmHg/s
Sprague-Dawley rats; mean, baseline −7585 (4a) / −8257 (6a)
  Left Ventricular −dP/dt: −4096 mmHg/s

## CO/N=C(\C)C1(NO)C(=O)N(C)N=C1C (centres unmarked) [Compound 7a, 4-(N-hydroxylamine)-4-(acetyl-O-methoxyoxime)-N-methyl-5-methyl-pyrazolone]
[4]
  half-life: 0.383 h

## CC1=NN(c2ccccc2)C(=O)C1(C)NO (centres unmarked) [Compound 8a, 4-(N-hydroxylamine)-4-methyl-N-phenyl-5-methyl-pyrazolone]
[3]; [6]
  half-life: 16 h
[3]; PBS, pH 7.4, Condition C: pH 7.4, 37° C., 0.25M PBS, 100 μL DTPA, BME (20 equiv.), argon (1H NMR)
  half-life: 28 h
[3]; PBS, pH 7.4, Condition D: pH 7.4, 37° C., 0.25M PBS, 100 μL DTPA, GSH (2 equiv.), argon (1H NMR)
  half-life: 50 h
[3]; PBS, pH 7.4, Condition E: pH 7.4, 37° C., 0.25M PBS, 100 μL DTPA, 12b (1 equiv.), air (1H NMR)
  half-life: 100 h

## CC1=NN(C)C(=O)C1(C)NO (centres unmarked) [Compound 9a, 4-(N-hydroxylamine)-4-methyl-N-methyl-5-methyl-pyrazolone]
[3]; Condition F: pH 7.4, 37° C., 0.25M PBS, no chelator, nitrogen (1H NMR)
  % remains after 48 h: 84% remains after 48
[3]; [6]
  half-life: 48 h

## CC1=NN(c2ccc(Cl)cc2)C(=O)C1(C)NO (centres unmarked) [Compound 10a, 4-(N-hydroxylamine)-4-methyl-N-(4-chlorophenyl)-5-methyl-pyrazolone]
[3]; [7]
  half-life: 84 h

## CC1=NN(c2ccccc2Cl)C(=O)C1(C)NO (centres unmarked) [Compound 11a, 4-(N-hydroxylamine)-4-methyl-N-(2-chlorophenyl)-5-methyl-pyrazolone]
[3]; [7]
  half-life: 120 h

## CC1=NNC(=O)C1(C)NO (centres unmarked) [Compound 12a, 4-(N-hydroxylamine)-4-methyl-5-methyl-pyrazolone]
[3]; Condition G: pH 7.4, 37° C., 0.25M PBS, 100 μL DTPA, air (1H NMR)
  % remains after 7 d: 70% remains after 7 d

## CC1(C)OC(=O)CC(=O)O1 [Meldrum's acid]
[5]
  pKa: 4.8

## CN1C(=O)CC(=O)N(C)C1=O [N,N-dimethyl barbituric acid]
[5]
  pKa: 4.7

## CC1=NN(c2ccccc2)C(=O)C1 [edaravone]
[5]
  pKa: 7
